PMC7617459, “Comparative Evaluation and Profiling of Chemical Tools for the Nuclear Hormone Receptor Family 2” (ACS pharmacology & translational science, 2025)
Where two headings read alike, the source gives them in different places.

How the values were obtained:
TLX [1] = conditions: cited from earlier work
HNF4α = molecular target: T1, HNF4α (Homo sapiens, UniProt P41235); experiment: Gal4-hybrid reporter gene assay HNF4α; conditions: 30 µM, HEK293T
T1 sequence (P41235 147-377 limits assumed): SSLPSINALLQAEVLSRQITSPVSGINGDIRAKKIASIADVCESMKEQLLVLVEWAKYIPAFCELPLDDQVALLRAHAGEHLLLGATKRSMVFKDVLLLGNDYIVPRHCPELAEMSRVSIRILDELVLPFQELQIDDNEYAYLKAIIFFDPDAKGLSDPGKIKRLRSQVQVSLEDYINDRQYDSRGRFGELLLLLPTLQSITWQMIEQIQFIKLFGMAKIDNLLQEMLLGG
Description: (§1) HEK293T cells (German Collection of Microorganisms and Cell Culture GmbH, DSMZ) were cultured in Dulbecco’s modified Eagle’s medium (DMEM), high glucose supplemented with 10% fetal calf serum (FCS), sodium pyruvate (1 mM), penicillin (100 U/mL), and streptomycin (100 μg/mL) at 37 °C and 5% CO2 and seeded in 96-well plates (3 × 10^4 cells/well). The medium was changed to Opti-MEM without supplements, and the cells were transiently transfected with one pFA-CMV-hNR-LBD clone, pFR-Luc, and pRL-SV40 using Lipofectamine LTX reagent (Invitrogen, Thermo Fisher Scientific) according to the manufacturer’s instructions. Five hours after transfection, cells were incubated with the test compounds in Opti-MEM supplemented with penicillin (100 U/mL), streptomycin (100 μg/mL), and 0.1% DMSO. Each sample was set up in duplicates and tested in at least three independent experiments. After 16 h incubation, luciferase activity was measured using the Dual-Glo Luciferase Assay System (Promega) according to the manufacturer’s protocol on a Tecan Spark luminometer (Tecan Deutschland GmbH, Crailsheim, Germany). Firefly luminescence was divided by Renilla luminescence and multiplied by 1000 resulting in relative light units (RLUs) to normalize for transfection efficiency and cell growth. Fold activation was obtained by dividing the mean RLU of the test compound by the mean^a RLU of the untreated control, and relative activation was calculated by dividing the fold activation of a test sample by the fold activation of the respective reference agonist. Antagonistic effects were evaluated by coincubation of the test compound with the respective reference ligand.

human insulin promoter = conditions: insulin promoter assay; cited from earlier work
[2] = test system: fructose-1,6-bisphosphatase 1 (FBP1); design: method as in PMID 33114319; conditions: HepG2 cells; cited from earlier work
[3] = test system: adipocyte-derived stem cells (ASC); experiment: Adipogenesis assay (ASC differentiation, Oil Red O); type: cell-based; conditions: 18 days
Excerpt: Using the small collection of NR2 modulators with sufficient reproducible on-target activity and selectivity (6, 7, 9, 11, 12, 13, 19, 21, 22, 23, 25), we next explored their application as a chemogenomics set.[161] To probe the potential of the collection to link phenotypic effects and target in a complex cellular setting, we determined compound effects on the differentiation of adipocyte-derived stem cells (ASC). Under cyclic treatment with insulin, isobutylmethylxanthine, dexamethasone and the PPARγ agonist pioglitazone,[162] these cells develop into adipocytes and accumulate large amounts of fat. However, adipogenesis is orchestrated by many transcription factors[163] and could potentially involve a role of NR2 receptors. […] There was no uniform effect of RXR modulators on fat deposition in adipocytes, possibly due to diverse off-targets of 6 and 11. […] Among TLX ligands the agonist 19 increased the amount of fat and lipid particle size, pointing to enhanced adipogenesis. The inverse TLX agonist 21 had no effect. PNR ligand effects in the adipogenesis model were generally weak.
Differentiation experiments of ASC52telo, hTERT cells (ATCC® SCRC-4000™) were conducted according to a previously described procedure.[162] In brief, the cells were grown in DMEM high-glucose medium supplemented with 10% fetal calf serum, sodium pyruvate (1 mM), penicillin (100 U/mL), and streptomycin (100 μg/mL) at 37 °C and 5% CO2. The cells were seeded in standard culture medium at a density of 5x10^4 cells per well in 96-well plates. After adherence overnight, cells were incubated with differentiation medium, composed of standard culture medium supplemented with human insulin (10 µg/mL, #I3536, Merck KgaA, Darmstadt, Germany), dexamethasone (1 µM, #D4902, Merck KgaA, Darmstadt, Germany,), isobutylmethylxanthine (0.5 mM, #I5879, Merck KgaA, Darmstadt, Germany), DMSO (final concentration 0.1%) and the respective test compounds or pioglitazone at 1 µM. The cells were kept in a differentiation medium for 48-72 h followed by a 24 h incubation with standard culture medium supplemented with 10 µg/mL insulin only. This cycle was repeated five times accounting for a total differentiation time of 18 days. The indicated test compounds at 0.1% DMSO or 0.1% DMSO alone as vehicle control were supplemented freshly with every medium exchange. After the 18-day differentiation procedure and test compound treatment, the cells were washed with phosphate buffered saline (PBS) once and fixed with formalin (10%, stabilized with methanol, 100 µL per well, #15071, Morphisto GmbH, Offenbach am Main, Germany) for 15 min at room temperature. The fixing solution was aspirated, and the fixed cells were washed twice with 50% ethanol solution with the second wash step incubating for 15 min at room temperature to equilibrate the specimens for staining. Oil Red O (#O0625, Merck KgaA, Darmstadt, Germany) was prepared at 0.5% (w/v) in 50% ethanol (v/v) and 5% salicylic acid (w/v), filtered with grade 595 Whatman® filter paper (#311611, Schleicher & Schuell GmbH, London, U.K.) and a 0.2 µm syringe filter (FP 30/0,2 CA-S, #10462200, Schleicher & Schuell GmbH, London, U.K.). Upon equilibration, specimens were incubated with 100 µL of 0.5% Oil Red O solution for 45 min at room temperature before the staining solution was aspirated and the wells were washed once with 50% (v/v) ethanol solution and three times with ddH2O. Specimens were kept in ddH2O for subsequent analysis. For each well, two pictures were taken at a 4x magnification using a Motic®AE31E inverted microscope and a Moticam 1080 (Motic Hong Kong Ltd.). Images were corrected for skewed illumination, Oil Red O crystal precipitates were identified and removed, and the resulting processed pictures were dichromized to extract gray values from the red channel using CellProfiler (Version 4.2.6). […]

RXRβ = conditions: cited from earlier work
RXRα [4] = conditions: cited from earlier work; for EC50: reporter gene assay
RXRγ = conditions: cited from earlier work; for EC50: reporter gene assay
RXRα [5] = molecular target: T2, RXRα (Homo sapiens, UniProt P19793); experiment: Gal4-hybrid reporter gene assay RXRα
T2 sequence (P19793 227-458 limits assumed): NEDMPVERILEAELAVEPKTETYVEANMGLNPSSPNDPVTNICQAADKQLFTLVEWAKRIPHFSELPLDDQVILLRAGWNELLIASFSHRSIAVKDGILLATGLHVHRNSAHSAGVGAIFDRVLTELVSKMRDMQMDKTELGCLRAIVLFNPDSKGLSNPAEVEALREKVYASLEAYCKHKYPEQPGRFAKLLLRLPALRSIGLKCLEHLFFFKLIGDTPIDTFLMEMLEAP
Description: as §1

TLX [6] = conditions: read-out: EC50 TLX activation; cellular reporter gene assay; cited from earlier work
TLX [7] = conditions: cited from earlier work; remark: listed apart in the source
TLX-regulated genes = conditions: cited from earlier work
nuclear receptors = experiment: Selectivity profiling in Gal4-hybrid reporter gene assay panel; type: cell-based, human; conditions: at active concentration
Description: Compounds were tested at concentrations around EC90 according to the literature or at the highest nontoxic concentration (from the multiplex toxicity assay). […] (b) Selectivity profiling of NR2 modulators in a representative panel of nuclear receptors outside the NR2 family. […] Effects <5% of the respective reference ligands were considered as not relevant and omitted. Only effects are shown that are statistically significant against VP16 ctrl (Figure S3); n = 3.
as §1

full-length TLX = conditions: reporter gene assay; cited from earlier work
TLX expression = conditions: cited from earlier work
TLX [8] = molecular target: T3, TLX (Homo sapiens, UniProt Q9Y466); experiment: Gal4-hybrid reporter gene assay TLX; type: cell-based; conditions: selected test concentration (Figure 3)
T3 construct: encoding the hinge region and the LBD of the canonical isoform of the respective human nuclear receptors; expressed in transfected cells; host or cells: HEK293T
T3 sequence (Q9Y466 155-383 limits assumed): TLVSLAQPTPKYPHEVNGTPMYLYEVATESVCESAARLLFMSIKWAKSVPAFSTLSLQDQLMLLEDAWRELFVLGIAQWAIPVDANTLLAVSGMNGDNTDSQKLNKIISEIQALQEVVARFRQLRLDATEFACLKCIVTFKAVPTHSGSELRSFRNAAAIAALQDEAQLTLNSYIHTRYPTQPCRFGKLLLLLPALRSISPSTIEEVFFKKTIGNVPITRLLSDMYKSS
Description: as §1

COS-7 cells = experiment: Multiplex toxicity assay; type: cell-based; conditions: 24 h, at active concentration
Description: COS-7 cells (DSMZ #ACC 60) were cultured at 37°C and 5% CO2 in DMEM high glucose medium supplemented with sodium pyruvate (1 mM), penicillin (100 U/mL), streptomycin (100 µg/mL), and 10% fetal calf serum (FCS). After aspirating the wells, the cells were seeded at 1x10^5 cells per well in complete culture medium. […] Each sample was prepared in at least 4 biologically independent replicates. After incubation for 24 h, the wells were aspirated and incubated for 30 min with stimulation medium containing 1 µM NucView® 405 fluorogenic caspase-3 substrate (#10405, Biotium, Fremont, USA) and Live-or-Dye Nuc-Fix Red (0.05x, Biotium, Inc., Fremont, CA, 1691 USA) to detect apoptosis and necrosis, respectively. After incubation, a total of 6 fluorescence images per well at 10x magnification were taken to detect NucView®-positive (Ex: 381–400 nm, Em: 414–450 nm) and Live-or-Dye-positive cells (Ex: 543−566 nm, Em: 580−611 nm) using on a Tecan Spark Cyto (Tecan Group AG). Reference readings for background correction and detection of auto-fluorescence were taken at 414–450 nm prior to staining. Thereafter, wells were aspirated, the cells were incubated for 3 h with 90 µL culture medium (0.2% FCS) and 10 µL Cell Counting Kit-8 solution (CCK-8, MedChem Express #HY-K0301), and absorbance was measured at 1, 2, and 3h of incubation at 450 nm on a Tecan Spark Cyto to assess metabolic activity of the cells. Before drug administration, after the first medium exchange, 24 h after drug administration, and after fluorescence imaging cell confluence was assessed using the Tecan Spark Cyto, to account for changes in cell confluence due to drug administration and cell handling. The number of apoptotic cells, metabolic activity, and changes in cell confluence in response to drug treatment were all normalized to the vehicle control of each biological replicate individually.

TLX LBD = conditions: ITC; cited from earlier work
[9] = reporter gene assays, read-out: IC50 (counteracting TLX repressor activity)
[10] = reporter gene assay, read-out: RXRβ cellular activity/potency
[11] = read-out: RXRγ cellular activity/potency

Q: Which IC50 (TLX [1]; [9]) does the source give for Cn1c(=O)[nH]c2nc[nH]c2c1=O [1-methylxantine] here?
A: 9000 nM

Q: Which “effects on HNF4 activity” value (HNF4α) does the source give for CC(Cc1cccc(C(F)(F)F)c1)NCCOC(=O)c1ccccc1 (stereo not shown) [compound 2, benfluorex] here?
A: no effects

Q: What about the EC50 (human insulin promoter) of the same compound?
A: 24400 nM

Q: For CCN(CCCc1ccccc1)CCCc1ccccc1 [compound 3, alverine], which “effects on HNF4 activity” value (HNF4α) is on record?
A: no effects

Q: What about the EC50 (human insulin promoter) of the same compound?
A: 3500 to 6800 nM

Q: For O=C(O)c1cc(-c2ccccc2)ccc1O [compound 4], which “expression of HNF4 target gene FBP1” value [2] is on record?
A: diminished expression

Q: Which “Oil red O positive area (amount of fat)” value [3] does the source give for O=C(O)[C@@H]1C[C@H]1c1nc(-c2ccccc2)c(-c2cc(C(F)(F)F)cc(C(F)(F)F)c2)o1 [compound 7] here?
A: affected neither

Q: And the “fat droplet (particle) size” value [3]?
A: affected neither

Q: What about the EC50 (RXRβ; [10]) of the same compound?
A: 1.4 nM

Q: What about the EC50 (RXRα [4]; read-out: RXRα cellular activity/potency) of the same compound?
A: 5 nM

Q: What about the EC50 (RXRγ; [11]) of the same compound?
A: 4 nM

Q: For CC1=C2[C@H](/C=C(\C)C(=O)O)CC[C@@H](C)[C@H]2CC1 [compound 9, Valerenic acid], which RXRα activation (RXRα [5]; 10 µM) is on record?
A: weak RXRα activation

Q: And the RXRβ fold activation (RXRβ)?
A: 69 fold act.

Q: And the EC50 (RXRβ; reporter gene assay, read-out: RXRβ EC50)?
A: 5200 nM

Q: What about the RXRα fold activation (RXRα [4]) of the same compound?
A: 9 fold act.

Q: And the EC50 (RXRα [4]; read-out: RXRα EC50)?
A: 27000 nM

Q: What about the RXRγ fold activation (RXRγ) of the same compound?
A: 4 fold act.

Q: What about the EC50 (RXRγ; read-out: RXRγ EC50) of the same compound?
A: 43000 nM

Q: Which “effect on bexarotene-induced RXR activation” value (RXRα [5]; 1 µM, coincubation with bexarotene) does the source give for CCCCCOc1cc2c(cc1-c1cc(/C=C/C(=O)O)ccc1O)C(C)(C)CCC2(C)C [compound 12] here?
A: robustly blocked

Q: What about the IC50 (RXRβ; reporter gene assay, no precise value reported, read-out: RXRb cellular activity/potency (antagonist)) of the same compound?
A: ~50 nM

Q: Which EC50 (TLX [6]) does the source give for CC(C)c1c(CN(C)C(C)Cc2ccccc2)n(C)n(-c2ccccc2)c1=O (stereo not shown) [compound 14] here?
A: 9200 nM

Q: And the Kd (TLX [7])?
A: 6600 nM

Q: With CC(C)NCC(O)COc1cccc2ccccc12 (stereo not shown) [compound 18, propranolol] as the compound, how does the “TLX-regulated SIRT1 and PTEN/TET3 expression” value (TLX-regulated genes; qRT-PCR) read?
A: modulated

Q: For CCCCOc1cc(C(=O)Nc2cc(-n3cnc(C)c3)cc(C(F)(F)F)c2)c2ccccc2n1 [compound 19], which “selectivity over other nuclear receptors” value (nuclear receptors) is on record?
A: selective over other nuclear receptors

Q: And the EC50 (TLX [1]; read-out: Gal4-TLX EC50)?
A: 250 nM

Q: And the IC50 (TLX [1]; reporter gene assay, read-out: IC50 (first value of cell))?
A: 250 nM

Q: And the EC50 (full-length TLX)?
A: 700 nM

Q: What about the “Oil red O positive area (amount of fat)” value [3] of the same compound?
A: increased

Q: What about the “fat droplet (particle) size” value [3] of the same compound?
A: increased

Q: What about the TLX expression levels (TLX expression) of the same compound?
A: no effect

Q: And the TLX modulation (TLX [8])?
A: TLX activation

Q: And the cytotoxicity (COS-7 cells)?
A: non-toxic

Q: And the SIRT1 expression (TLX-regulated genes)?
A: induced SIRT1 expression

Q: And the Kd (TLX LBD)?
A: 500 nM

Q: What does the source list for Cn1c(=O)c2[nH]c(-c3ccccc3Cl)nc2n(C)c1=O [compound 20, 8-(2-chlorophenyl)-theophylline]?
A: IC50 (TLX [1]; [9]): 500 nM; Kd (TLX LBD): 800 nM

Q: What does the source list for Cn1c(=O)c2[nH]c(-c3ccccc3)nc2n(C)c1=O [compound 21, 8-Phenyl-theophylline]?
A: selectivity over other nuclear receptors (nuclear receptors): selective over other nuclear receptors; Oil red O positive area (amount of fat) [3]: no effect; fat droplet (particle) size [3]: no effect; TLX modulation (TLX [8]): inverse agonism; cytotoxicity (COS-7 cells): non-toxic
